Measured values as given in patent publication US9421204B2, “Oligomer modified diaromatic substituted compounds” (priority 2010, dated 2016).
Like-named read-outs stand apart in the source and are kept apart here.

Key:
[1] = system: NL4-3; assay: Anti-HIV cytoprotection assay, wild type NL4-3; assay type: cell-based, HIV-1; settings: for TI: HIV-1 strain NL4-3
Procedure: (§1) Cells were prepared as described above. Virus Preparation—The wild type NL4-3 and drug resistant A17 viruses were obtained from the NIH AIDS Research and Reference Reagent Program and stock virus pools were produced in CEM-SS cells. Amino acid substitutes of L100I, Y181C and P23L were introduced by site-directed mutagenesis into pN L4-3 and stock virus pools were produced in CEM-SS cells. A pretitered aliquot of virus was removed from the freezer (−80° C.) and allowed to thaw slowly to room temperature in a biological safety cabinet.
(§2) Plate Format—Each plate contains cell control wells (cells only), virus control wells (cells plus virus), drug toxicity wells (cells plus drug only), drug colorimetric control wells (drug only) as well as experimental wells (drug plus cells plus virus). Samples were tested in triplicate with eleven half-log dilutions per compound. Efficacy and Toxicity XTT—Following incubation at 37° C. in a 5% CO2 incubator, the test plates were stained with the tetrazolium dye XTT (2,3-bis(2-methoxy-4-nitro-5-sulfophenyl)-5-[(phenylamino)carbonyl]-2H-tetrazolium hydroxide). XTT-tetrazolium was metabolized by the mitochondrial enzymes of metabolically active cells to a soluble formazan product, allowing rapid quantitative analysis of the inhibition of HIV induced cell killing by anti-HIV test substances. XTT solution was prepared daily as a stock of 1 mg/mL in RPMI1640. Phenazine methosulfate (PMS) solution was prepared at 0.15 mg/mL in PBS and stored in the dark at −20° C. XTTIPMS stock was prepared immediately before use by adding 40 μL of PMS per ml of XTT solution. Fifty microliters of XTT/PMS was added to each well of the plate and the plate was re-incubated for 4 hours at 37° C. Plates were sealed with adhesive plate sealers and shaken gently or inverted several times to mix the soluble formazan product and the plate was read spectrophotometrically at 450/650 nm with a Molecular Devices Vmax plate reader.
(§3) Data Analysis—Raw data was collected from the Softmax Pro 4.6 software and imported into a Excel XLFit4 spreadsheet for analysis by four parameter curve fit calculations. Both antiviral activity and toxicity are calculated.

[2] = system: NL4-3L100I; assay: Anti-HIV cytoprotection assay, drug resistant NL4-3 L100I; assay type: cell-based; settings: HIV-1 strain NL4-3L100I; for EC50: CEM-SS cells
Procedure: as §1, with “cabinet. Virus was re-suspended and diluted into tissue culture medium such that the amount of virus added to each well in a volume of 50 μL was the amount determined to yield 85 to 95% cell killing at 6 days post-infection.” for “cabinet.”
as §2, §3

[3] = system: NL4-3Y181C; assay: Anti-HIV cytoprotection assay, drug resistant NL4-3 Y181C; assay type: cell-based; settings: HIV-1 strain NL4-3Y181C; for EC50: CEM-SS cells
Procedure: as §1, with “cabinet. Virus was re-suspended and diluted into tissue culture medium such that the amount of virus added to each well in a volume of 50 μL was the amount determined to yield 85 to 95% cell killing at 6 days post-infection.” for “cabinet.”
as §2, §3

[4] = system: NL4-3P236L; assay: Anti-HIV cytoprotection assay, drug resistant NL4-3 P236L; assay type: cell-based; settings: HIV-1 strain NL4-3P236L; for EC50: CEM-SS cells
Procedure: as §1, with “cabinet. Virus was re-suspended and diluted into tissue culture medium such that the amount of virus added to each well in a volume of 50 μL was the amount determined to yield 85 to 95% cell killing at 6 days post-infection.” for “cabinet.”
as §2, §3

[5] = system: A17K103N/Y181C; assay: Anti-HIV cytoprotection assay, drug resistant A17; assay type: cell-based; settings: HIV-1 strain A17K103N/Y181C, CEM-SS cells
Procedure: as §1, §2, §3

[6] = Toxicity XTT in CEM-SS cells (drug resistant strain assay); assay type: cell-based; settings: human, CEM-SS cells, read-out: TC50 (the source's name)
Procedure: as §1, with “cabinet. Virus was re-suspended and diluted into tissue culture medium such that the amount of virus added to each well in a volume of 50 μL was the amount determined to yield 85 to 95% cell killing at 6 days post-infection.” for “cabinet.”
as §2, §3

[7] = system: CEM-SS cells; assay: Toxicity XTT in CEM-SS cells (cytoprotection assay); assay type: cell-based; settings: XTT; read-out: CEM-SS TC50
Procedure, shortened: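 CEM-SS cells in exponential growth (>95% viable) were plated with compound alone, as eleven half-log dilutions in triplicate, at 37 °C and 5% CO2. Viability was measured by XTT/PMS metabolism over 4 h, read at 450/650 nm. Toxicity was derived by four-parameter curve fitting.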

[8] = system: CEM-SS cells; assay: Toxicity XTT in CEM-SS cells (drug resistant strain assay); assay type: cell-based; settings: read-out: TC50 (the source's name)
Procedure: as §1, with “cabinet. Virus was re-suspended and diluted into tissue culture medium such that the amount of virus added to each well in a volume of 50 μL was the amount determined to yield 85 to 95% cell killing at 6 days post-infection.” for “cabinet.”
as §2, §3

[9] = system: Caco-2 monolayers; assay: in vitro; assay type: in vitro ADME; settings: for Recovery (%) A→B / Recovery (%) B→A / Average Papp, A→B / Average Papp, B→A: 2 hours; for Average Papp, A→B / Average Papp, B→A: pH 7.4
Procedure, shortened: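 Permeability across Caco-2 monolayers in 12-well Transwell inserts (1.13 cm² area), run in duplicate. Calculation uses receiver and donor volumes, nominal dosing concentration, final receiver and donor concentrations, and the mean of nominal and measured 120 min donor concentrations.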

[10] = Human immunodeficiency virus 1, NL43, CEM-SS
[11] = Human immunodeficiency virus 1, CEM-SS
[12] = run with HIV-1 strain A17K103N/Y181C
[13] = run with HIV-1 strain NL4-3L100I
[14] = run with HIV-1 strain NL4-3P236L
[15] = run with HIV-1 strain NL4-3Y181C

Compound: COCCNc1ccc2[nH]c(C(=O)N3CCN(c4ncccc4NC(C)C)CC3)cc2c1 [5-mPEG1-NH-Delavirdine, 5-mPEG-NH-Delavirdine]
- TI [1]: >50.0
- EC50 [1, 10]: 20 nM
- TI [2]: >1.8
- EC50 [2, 11]: 560 nM
- TI [3]: >1.2
- EC50 [3, 11]: 820 nM
- EC50 [4, 11]: > 1000 nM
- EC50 [5, 11]: > 1000 nM
- CC50 [6, 12]: > 1000 nM
- CC50 ([6]; run with HIV-1 strain NL4-3): > 1000 nM
- CC50 [6, 13]: > 1000 nM
- CC50 [6, 14]: > 1000 nM
- CC50 [6, 15]: > 1000 nM

Compound: COCCOCCOCCOc1ccc2[nH]c(C(=O)N3CCN(c4ncccc4NC(C)C)CC3)cc2c1 [mPEG3-O-Delavirdine, 5-O-mPEG3-Delavirdine]
- TI [1]: >83.3
- EC50 [1, 10]: 60 nM
- TI [2]: >167.0
- EC50 [2, 11]: 30 nM
- EC50 [3, 11]: > 5000 nM
- EC50 [4, 11]: > 5000 nM
- EC50 [5, 11]: > 5000 nM
- CC50 [6, 12]: > 5000 nM
- CC50 ([6]; run with HIV-1 strain NL4-3): > 5000 nM
- CC50 [6, 13]: > 5000 nM
- CC50 [6, 14]: > 5000 nM
- CC50 [6, 15]: > 5000 nM

Compound: COCCOCCNc1ccc2[nH]c(C(=O)N3CCN(c4ncccc4NC(C)C)CC3)cc2c1 [5-mPEG2-NH-Delavirdine]
- TI [1]: >12.5
- EC50 [1, 10]: 80 nM
- TI [2]: >1.4
- EC50 [2, 11]: 710 nM
- EC50 [3, 11]: > 1000 nM
- TI [4]: >4.4
- EC50 [4, 11]: 230 nM
- EC50 [5, 11]: > 1000 nM
- CC50 [6, 12]: > 1000 nM
- CC50 ([6]; run with HIV-1 strain NL4-3): > 1000 nM
- CC50 [6, 13]: > 1000 nM
- CC50 [6, 14]: > 1000 nM
- CC50 [6, 15]: > 1000 nM

Compound: COCCOCCOCCOCCOc1ccc2[nH]c(C(=O)N3CCN(c4ncccc4NC(C)C)CC3)cc2c1 [mPEG4-O-Delavirdine, 5-O-mPEG4-Delavirdine]
- TI [1]: >5.8
- EC50 [1, 10]: 870 nM
- TI [2]: >5.3
- EC50 [2, 11]: 950 nM
- EC50 [3, 11]: > 5000 nM
- EC50 [4, 11]: > 5000 nM
- EC50 [5, 11]: > 5000 nM
- CC50 [6, 12]: > 5000 nM
- CC50 ([6]; run with HIV-1 strain NL4-3): > 5000 nM
- CC50 [6, 13]: > 5000 nM
- CC50 [6, 14]: > 5000 nM
- CC50 [6, 15]: > 5000 nM

Compound: 5-O-mPEG9-Delavirdine [mPEG9-O-Delavirdine]
- CC50 [7]: 40700 nM
- TI [1]: >5.6
- EC50 ([1]; HIV-1 strain NL4-3, CEM-SS cells, read-out: EC50): 890 nM
- TI [2]: >5.3
- EC50 ([2]; read-out: EC50): 940 nM
- EC50 ([3]; read-out: EC50): > 5000 nM
- EC50 ([4]; read-out: EC50): > 5000 nM
- EC50 ([5]; read-out: EC50): > 5000 nM
- CC50 [8, 12]: > 5000 nM
- CC50 ([8]; run with HIV-1 strain NL4-3): > 5000 nM
- CC50 [8, 13]: > 5000 nM
- CC50 [8, 14]: > 5000 nM
- CC50 [8, 15]: > 5000 nM
- Efflux Ratio (B→A/A→B) ([9]; Test 1): 12
- Recovery (%) A→B ([9]; Test 1, 10 μM): 66%
- Recovery (%) B→A ([9]; Test 1, 10 μM): 72%
- Average Papp, A→B ([9]; Test 1, 10 μM): 2.22 ×10⁻⁶ cm/s
- Average Papp, B→A ([9]; Test 1, 10 μM): 27.7 ×10⁻⁶ cm/s
- Efflux Ratio (B→A/A→B) ([9]; Test 2): 7.1
- Recovery (%) A→B ([9]; Test 2, 10 μM): 93%
- Recovery (%) B→A ([9]; Test 2, 10 μM): 94%
- Average Papp, A→B ([9]; Test 2, 10 μM): 5.27 ×10⁻⁶ cm/s
- Average Papp, B→A ([9]; Test 2, 10 μM): 37.3 ×10⁻⁶ cm/s
